Biological target: human PDE1B enzyme (Homo sapiens (Human), UniProt Q01064)
Test: IMAP TR-FRET PDE1B enzymatic assay
Assay type: biochemical
Details: negative log of half-maximal molar inhibitory concentration; 200 nM FAM-cAMP; values given as bins
Procedure, shortened: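 Full-length GST-tagged human PDE1B (250 pg/well) in IMAP BSA buffer with 10 U/ml calmodulin and 2.5 mM CaCl2; compound pre-incubated 5 min at room temperature, then 200 nM (final) FAM-cAMP for 30 min. IMAP binding reagent/Tb added, 1 h; TR-FRET 520/490 ratio read. IC50 from sigmoidal dose-response fit.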

| Structure (SMILES) | PDE1b (pIC50) |
| --- | --- |
| Cc1oc2ncnc(NC3(C)CC3)c2c1C(=O)N1CCc2c(OCF)ccnc2C1 [Example 763, 5-[4-(Fluoromethoxy)-5,6,7,8-tetrahydro-1,7-naphthyridine-7-carbonyl]-6-methyl-N-(1-methylcyclopropyl)furo[2,3-d]pyrimidin-4-amine] | >8 |
| Cc1oc2ncnc(NC3(C)CC3)c2c1C(=O)N1CCC(c2ccc(Br)cn2)C1 (stereo not shown) [Example 373, 5-[3-(5-Bromopyridin-2-yl)pyrrolidine-1-carbonyl]-6-methyl-N-(1-methylcyclopropyl)furo[2,3-d]pyrimidin-4-amine] | >8 |
| Cc1oc2ncnc(NC3(C)CC3)c2c1C(=O)N1CCC(F)(c2ccccc2)C1 (stereo not shown) [Example 132, 5-(3-Fluoro-3-phenylpyrrolidine-1-carbonyl)-6-methyl-N-(1-methylcyclopropyl)furo[2,3-d]pyrimidin-4-amine] | >8 |
| Cc1cnc(CNC(=O)c2c(C)oc3ncnc(NC4(C)CC4)c23)s1 [Example 467, 6-Methyl-N-[(5-methyl-1,3-thiazol-2-yl)methyl]-4-[(1-methylcyclopropyl)amino]furo[2,3-d]pyrimidine-5-carboxamide] | >8 |
| Cc1oc2ncnc(NC3(C)CC3)c2c1C(=O)N(CCCO)Cc1ccc(F)cc1 [Example 574, N-[(4-Fluorophenyl)methyl]-N-(3-hydroxypropyl)-6-methyl-4-[(1-methylcyclopropyl)amino]furo[2,3-d]pyrimidine-5-carboxamide] | >8 |
| Cc1oc2ncnc(NC3(C)CC3)c2c1C(=O)NCc1ccc(C(F)(F)F)cn1 [Example 450, 6-Methyl-4-[(1-methylcyclopropyl)amino]-N-{[5-(trifluoromethyl)pyridin-2-yl]methyl}furo[2,3-d]pyrimidine-5-carboxamide] | >8 |
| Cc1oc2ncnc(NC3(C)CC3)c2c1C(=O)N1CC=C(c2cnc(C#N)c(F)c2)CC1 [Example 12, 3-Fluoro-5-(1-{6-methyl-4-[(1-methylcyclopropyl)amino]furo[2,3-d]pyrimidine-5-carbonyl}-1,2,3,6-tetrahydropyridin-4-yl)pyridine-2-carbonitrile] | >8 |
| Cc1oc2ncnc(NC3(C)CC3)c2c1C(=O)N1CCC(c2cc(C)n(C)n2)CC1 [Example 779, 5-[4-(1,5-Dimethyl-1H-pyrazol-3-yl)piperidine-1-carbonyl]-6-methyl-N-(1-methylcyclopropyl)furo[2,3-d]pyrimidin-4-amine] | >8 |
| Cc1oc2ncnc(NC3(C)CC3)c2c1C(=O)N1CCC(c2nc(Cl)ncc2F)CC1 [Example 351, 5-[4-(2-Chloro-5-fluoropyrimidin-4-yl)piperidine-1-carbonyl]-6-methyl-N-(1-methylcyclopropyl)furo[2,3-d]pyrimidin-4-amine] | >8 |

Same assay, conditions: negative log of half-maximal molar inhibitory concentration; 200 nM FAM-cAMP; values given as bins; read-out: PDE1b (pIC50) (converted)

| Structure (SMILES) | IC50 |
| --- | --- |
| Cc1nc(C)n2c1CN(C(=O)c1c(C)oc3ncnc(NC4(C)CC4)c13)CC2 [Example 814, 5-{1,3-Dimethyl-5H,6H,7H,8H-imidazo[1,5-a]pyrazine-7-carbonyl}-6-methyl-N-(1-methylcyclopropyl)furo[2,3-d]pyrimidin-4-amine] | 100 to 1000 nM |
| Cc1oc2ncnc(NC3(C)CC3)c2c1C(=O)NCC1CC1 [Example 746, N-(Cyclopropylmethyl)-6-methyl-4-[(1-methylcyclopropyl)amino]furo[2,3-d]pyrimidine-5-carboxamide] | 10 to 100 nM |
| Cc1noc(CNC(=O)c2c(C)oc3ncnc(NC4(C)CC4)c23)n1 [Example 627, 6-Methyl-N-[(3-methyl-1 2 4-oxadiazol-5-yl)methyl]-4-[(1-methylcyclopropyl)amino]furo[2,3-d]pyrimidine-5-carboxamide] | 10 to 100 nM |
| Cc1oc2ncnc(NC3(C)CC3)c2c1C(=O)Nc1cnn(-c2cccnc2)c1 [Example 620, 6-Methyl-4-[(1-methylcyclopropyl)amino]-N-[1-(pyridin-3-yl)-1H-pyrazol-4-yl]furo[2,3-d]pyrimidine-5-carboxamide] | 10 to 100 nM |
| Cc1oc2ncnc(NC3(C)CC3)c2c1C(=O)NC1(c2ccccn2)CC1 [Example 79, 6-Methyl-4-[(1-methylcyclopropyl)amino]-N-[1-(pyridin-2-yl)cyclopropyl]furo[2,3-d]pyrimidine-5-carboxamide] | 10 to 100 nM |
| Cc1oc2ncnc(NC3(C)CC3)c2c1C(=O)Nc1ccc(-c2ccoc2)nc1 [Example 34, N-[6-(Furan-3-yl)pyridin-3-yl]-6-methyl-4-[(1-methylcyclopropyl)amino]furo[2,3-d]pyrimidine-5-carboxamide] | 10 to 100 nM |
| Cc1oc2ncnc(NC3(C)CC3)c2c1C(=O)NCc1ccc(F)cc1 [Example 48, N-[(4-Fluorophenyl)methyl]-6-methyl-4-[(1-methylcyclopropyl)amino]furo[2,3-d]pyrimidine-5-carboxamide] | 10 to 100 nM |
| Cc1oc2ncnc(NC3(C)CC3)c2c1C(=O)NC1(C)CC1 [Example 89, 6-Methyl-N-(1-methylcyclopropyl)-4-[(1-methylcyclopropyl)amino]furo[2,3-d]pyrimidine-5-carboxamide] | 10 to 100 nM |
| Cc1oc2ncnc(NC3(C)CC3)c2c1C(=O)N1CCc2ncc(OCF)cc2C1 [Example 768, 5-[3-(Fluoromethoxy)-5,6,7,8-tetrahydro-1,6-naphthyridine-6-carbonyl]-6-methyl-N-(1-methylcyclopropyl)furo[2,3-d]pyrimidin-4-amine] | 10 to 100 nM |
| Cc1oc2ncnc(NC3(C)CC3)c2c1C(=O)N1CCC(c2ncccc2F)C1 (stereo not shown) [Example 529, 5-[3-(3-Fluoropyridin-2-yl)pyrrolidine-1-carbonyl]-6-methyl-N-(1-methylcyclopropyl)furo[2,3-d]pyrimidin-4-amine] | 10 to 100 nM |
| Cc1oc2ncnc(NC3(C)CC3)c2c1C(=O)NCc1ccccc1F [Example 218, N-[(2-Fluorophenyl)methyl]-6-methyl-4-[(1-methylcyclopropyl)amino]furo[2,3-d]pyrimidine-5-carboxamide] | 10 to 100 nM |
| Cc1oc2ncnc(NC3(C)CC3)c2c1C(=O)NCCc1ccccc1 [Example 195, 6-Methyl-4-[(1-methylcyclopropyl)amino]-N-(2-phenylethyl)furo[2,3-d]pyrimidine-5-carboxamide] | 10 to 100 nM |
| COc1cccc(CN(C)C(=O)c2c(C)oc3ncnc(NC4(C)CC4)c23)c1 [Example 203, N-[(3-Methoxyphenyl)methyl]-N,6-dimethyl-4-[(1-methylcyclopropyl)amino]furo[2,3-d]pyrimidine-5-carboxamide] | 10 to 100 nM |
| Cc1oc2ncnc(NC3(C)CC3)c2c1C(=O)N1Cc2cc(C3CCOCC3)cnc2C1 [Example 748, 6-Methyl-N-(1-methylcyclopropyl)-5-[3-(oxan-4-yl)-5H,6H,7H-pyrrolo[3,4-b]pyridine-6-carbonyl]furo[2,3-d]pyrimidin-4-amine] | 100 to 1000 nM |
| Cc1oc2ncnc(NC3(C)CC3)c2c1C(=O)n1cc(C(C)C)cn1 [Example 404, 6-Methyl-N-(1-methylcyclopropyl)-5-[4-(propan-2-yl)-1H-pyrazole-1-carbonyl]furo[2,3-d]pyrimidin-4-amine] | 10 to 100 nM |
| Cc1oc2ncnc(NC3(C)CC3)c2c1C(=O)NC(C)c1cnccn1 (stereo not shown) [Example 315, 6-Methyl-4-[(1-methylcyclopropyl)amino]-N-[1-(pyrazin-2-yl)ethyl]furo[2,3-d]pyrimidine-5-carboxamide] | 10 to 100 nM |
